In patent publication US20050222260A1, “(2S)-2-amino-a-{[2-(ethanimidoylamino) ethyl]thio}butanoic acid, a nitric oxide synthase inhibitor, in stabilized pharmaceutical dosage forms” (priority 2003, published 2005):

Key:
[1] = Compatibility with standard pharmaceutical excipients of solid oral dosage forms; assay type: physicochemical; details: excipients conventionally used for solid oral dosage forms such as tablets; e.g. as compound with phosphoric acid
[2] = compared with the hydrochloride salts exemplified in WO98/30537; cited from earlier work

| SMILES | compatibility with standard pharmaceutical excipients [1] | hygroscopicity [2] |
| --- | --- | --- |
| CC(=N)NCCSCC[C@H](N)C(=O)O [(2S)-2-amino4-{[2-(ethanimidoylamino)ethyl]thio}butanoic acid] | exhibits incompatability with standard pharmaceutical excipients |  |
| CC(=N)NCCSCC[C@H](N)C(=O)O.O=P(O)(O)O [phosphate salt of (2S)-2-amino4-{[2-(ethanimidoylamino)ethyl]thio}butanoic acid] |  | considerably less hygroscopic |
